Data from patent US20220163532A1, “NUCLEAR-DERIVED EXOSOMES AND METHODS OF USE THEREOF” (Board of Regents, The University of Texas System, priority 2019, published 2022).

Columns and labels:
[1] = test system: OVCAR-5 and OVCAR-8 cells; assay: DNA-positive exosomes (nExo) from drug-treated ovarian cancer cells by imaging flow cytometry; type: cell-based, human; conditions: topotecan 10 nM or olaparib 20 μM, parental cells treated 48 hours, vs DMSO
Experimental: Isolation of exosomes. The isolation method for exosomes that was used in this study followed the standard methods of the International Society of Extracellular Vesicles (Witwer et al., 2013). Cell lines described above were grown in the corresponding medium described above until 60 to 70% confluence was achieved. Cells were then washed twice with phosphate-buffered saline (PBS) and grown in corresponding medium containing 1% exosome-free FBS (EXO-FBS-250A-1, System Biosciences) plus 0.1% gentamicin for 48 hours. For exosome isolation, the harvested medium underwent serial centrifugation. First, the medium was spun down at 500g for 10 min to pellet any floating cells. Next, the supernatant was collected and spun down at 2000g for 30 min to pellet any residual cell debris. The resulting supernatant was then filtered through a 0.22-μm filter (SCGPUO5RE and SLGP033RS, Millipore-Sigma) to remove any remaining large vesicles. […] Exosome concentration and quantity were determined using NTA with a NanoSight NS300 instrument (Malvern Panalytical).
Exosome staining for imaging flow cytometry and analysis. For quantitative analysis and imaging flow cytometry of exosomes, the method described by Erdbrugger et al. (2014) using an Amnis ImageStreamX MarkII analyzer was adapted. […]

[2] = test system: OVCAR-5 ovarian cancer model; assay: MN quantification in tumor nodules of OVCAR-5 intraperitoneal model after topotecan; type: in vivo, mouse; conditions: topotecan 7.5 mg/kg intraperitoneally, single dose, euthanized 48 hours later; vs vehicle control
Experimental: In vivo experiments. For the in vivo mouse experiments, female athymic (NCr-nude) mice were purchased from Taconic Biosciences. Mice were cared for in accordance with the American Association for Assessment and Accreditation of Laboratory Animal Care and the U.S. Public Health Service policy on Humane Care and Use of Laboratory Animals. All studies and experiments that were performed were supervised and approved by the MD Anderson Institutional Animal Care and Use Committee. Mice were 10 to 15 weeks old at the time of tumor intraperitoneal cell injections. OVCAR-5 luciferase—labeled cells (1×10^6) were injected intraperitoneally into each mouse. […]
Human tumor samples and MN quantification. […] For MN identification and quantification, the Vectra Polaris platform (PerkinElmer) was used, and inForm software (PerkinElmer) was used to systematically count MN. After tissue segmentation, a number of nuclei in views were calculated by the cell segmentation process, and MN was defined as over 0.85 roundness and less than approximately 3 μm size (95 pixels in 96 dpi images), as shown in FIG. 3D.
To validate these findings in vivo, the OVCAR-5 ovarian cancer model, which represents disseminated peritoneal disease, was used. […] To calculate the number of MN, multiple IF images of tumor slides were taken, and MN were systematically counted by the Vectra—inForm Image Analysis System (PerkinElmer) (FIG. 3D).

## CC[C@@]1(O)C(=O)OCc2c1cc1n(c2=O)Cc2cc3c(CN(C)C)c(O)ccc3nc2-1 [topotecan]
[1]
  population of exosomes containing gDNA (proportion of nExo secreted): increased
[2]
  MN-positive cell percentages in tumor: trend toward an increased
